Assay results published in patent US20090325904A1, “MALEIC ACID MONOSALT OF ANTIVIRAL AGENT AND PHARMACEUTICAL COMPOSITION CONTAINING THE SAME” (LG Life Sciences Ltd., priority 2007, published 2009).
Converted amounts (≈) assume the structure as drawn. Where two headings read alike, the source gives them in different places.

Key:
[1] = Stability at 60°C (residual content by HPLC); conditions: for residual content: 60°C (about 4% RH)
Description: (§1) Contents of the free base of 3-[({1-[(2-amino-9H-purin-9-yl)methyl]cyclopropyl}oxy)methyl]-8,8-dimethyl-3,7-dioxo-2,4,6-trioxa-3λ5-phosphanon-1-yl-pivalate and salts thereof were measured by high performance liquid chromatography (HPLC). The specific measuring conditions are fisted below:
After 1 or 2, 4 and 8 weeks, each sample in the glass vial was taken, dissolved in a solvent mixture of tetrahydrofuran/water (1/1, v/v), and analyzed by HPLC.

[2] = Stability under heat and moisture, 40°C/75% RH (residual content by HPLC); type: physicochemical
Description: as §1
After 1, 4 and 8 weeks, 5 mg of each sample was taken, dissolved in a solvent mixture of tetrahydrofuran/water (1/1, v/v), and analyzed by HPLC.

[3] = Solubility test at various pH; type: physicochemical; conditions: for solubility at 1.5 h: phosphate buffer / phosphoric acid solution, aqueous buffer, thermodynamic from solid
Description: 5˜23 mg each of the maleic acid monosalt of the Example and the free base of Comparative Example 1 was placed into a glass bottle. 500 μl each of the various phosphate buffer solution and phosphoric acid solution having a specific pH value was added thereto. The glass bottle was placed in water to maintain a constant temperature of 25° C., and the mixture was stirred for 1.5 h. After filtration, the content in the filtrate was analyzed by HPLC, and the pH of the solution was measured. The measured pH values and the solubilities of the maleic acid monosalt and the free base are represented in the following Table 3.

[4] = system: HepG2.2.15; experiment: Cytotoxicity determination (MTT); conditions: for cytotoxicity: HepG2.2.15
Description: (§2) The hepatitis B virus-producing cell line, HepG2.2.15 (M. A. Shels, et al., Proc. Natl. Acad. Sci. USA 84, 1005 (1987)), was cultured in DMEM (Dulbecco's Modified Eagle Media; Life Technologies) containing 10% FBS (Fetal Bovine Serum), 1% ABAM (Antibiotic-Antimycotic) and Geneticin whose final concentration was measured as 400 μg/ml. The cells were cultured to confluency, treated with trypsin, and distributed to 96 well microplate in a density of 2×10^4 cells/well. After 24 h, the medium was changed and the compound treatment was carried out in intervals of 2 days by serially diluting the free base of Comparative Example 1 and the maleic acid monosalt of Example by three fold so that the final concentration was 50 μM to 8 nM in 200 μl of medium. Every test samples were duplicated. After 8 days from the first drug treatment, the culture medium was collected, and the cells were lysed by heating the cells to 100° C. for 10 min. In order to minimize the substances that interfere with the DNA amplification reaction, the culture medium was diluted by ten fold using water. The control group, cell culture medium which was not treated with the drug, was treated in the same manner as the above.
(§3) CC50 value of the drug was determined by removing the medium, adding 100 μl of 0.1 mg/ml MTT (Thiazolyl Blue Tetrazolium Bromide: Sigma) to the residue, dyeing the residue for 2 h at 37° C., adding 100 μl of DMSO (Dimethyl Sulfoxide: Sigma), dissolving the resulting mixture by agitating for 2 h at room temperature, and measuring the absorbance at 540 nm.

[5] = Cytotoxicity determination (MTT); conditions: human
Description: as §2, §3

[6] = Hygroscopicity (no method described); type: physicochemical
[7] = system: hepatitis B virus; experiment: In vitro anti-HBV activity, HBV DNA by real-time PCR in HepG2.2.15 culture medium; type: cell-based
Description: as §2

Compound: CC(C)(C)C(=O)OCOP(=O)(COC1(Cn2cnc3cnc(N)nc32)CC1)OCOC(=O)C(C)(C)C.O=S(=O)(O)c1ccc2ccccc2c1 [Comparative Example 6, 3-[({1-[(2-amino-9H-purin-9-yl)methyl]cyclopropyl}oxy)methyl]-8,8-dimethyl-3,7-dioxo-2,4,6-trioxa-3λ5-phosphanon-1-yl-pivalate naphthalenesulfonic acid monosalt]
- residual content ([1]; Week 2): 74.7%

Compound: CC(C)(C)C(=O)OCOP(=O)(COC1(Cn2cnc3cnc(N)nc32)CC1)OCOC(=O)C(C)(C)C.CS(=O)(=O)O [Comparative Example 5, 3-[({1-[(2-amino-9H-purin-9-yl)methyl]cyclopropyl}oxy)methyl]-8,8-dimethyl-3,7-dioxo-2,4,6-trioxa-3λ5-phosphanon-1-yl-pivalate methanesulfonic acid monosalt]
- residual content ([2]; Week 1): 50.7%
- residual content ([2]; Week 4): 0.0%
- residual content ([2]; Week 8): 0.0%

Compound: CC(C)(C)C(=O)OCOP(=O)(COC1(Cn2cnc3cnc(N)nc32)CC1)OCOC(=O)C(C)(C)C.O=C(O)/C=C\C(=O)O [Example, 3-[({1-[(2-amino-9H-purin-9-yl)methyl]cyclopropyl}oxy)methyl]-8,8-dimethyl-3,7-dioxo-2,4,6-trioxa-3λ5-phosphanon-1-yl-pivalate maleic acid monosalt]
- residual content ([1]; Week 1): 99.4%
- residual content ([1]; Week 4): 99.2%
- residual content ([1]; Week 8): 98.2%
- thermal stability (decomposition, in words) ([1]; 60°C, stressed condition): remained almost intact without decomposition for up to 8 weeks
- solubility relative to the free base ([3]; pH 6.5): three times higher
- solubility at 1.5 h ([3]; 25 °C, pH range of 2 to 6.5): 3000 to 7000 µg/mL
- solubility at 1.5 h ([3]; solution pH 2.0, 25°C): 5600 µg/mL
- solubility at 1.5 h ([3]; solution pH 3.2, 25°C): 7000 µg/mL
- solubility at 1.5 h ([3]; solution pH 4.0, 25°C): 4200 µg/mL
- solubility at 1.5 h ([3]; solution pH 6.5, 25°C): 2900 µg/mL
- cytotoxicity [4]: about 7 m M
- CC50 at 8 days [5]: 6.8 ± 2.4 µM
- hygroscopicity [6]: non-hygroscopic
- EC50 ([7]; Hepatitis B virus, HepG2.2.15, 192 h): 1.2 ± 0.3 µM
- EC50 ([7]; Hepatitis B virus, HepG2.2.15, read-out: activity (in vitro, summary in text)): ~1 µM
- residual content ([2]; Week 1): 99.4%
- residual content ([2]; Week 4): 99.3%
- residual content ([2]; Week 8): 98.3%

Compound: CC(C)(C)C(=O)OCOP(=O)(COC1(Cn2cnc3cnc(N)nc32)CC1)OCOC(=O)C(C)(C)C [Comparative Example 1, Free Base of 3-[({1-[(2-amino-9H-purin-9-yl)methyl]cyclopropyl}oxy)methyl]-8,8-dimethyl-3,7-dioxo-2,4,6-trioxa-3λ5-phosphanon-1-yl-pivalate]
- residual content ([1]; Week 1): 98.2%
- residual content ([1]; Week 4): 79.2%
- residual content ([1]; Week 8): 1.2%
- residual content ([1]; Week 8, listed as free base): about 1%
- solubility ([3]; pH 6 or more): ≤ 1000 µg/mL
- solubility ([3]; pH of 2 or less): ≥ 36000 µg/mL
- solubility ([3]; solution pH 2.0, 25°C): 36500 µg/mL (≈ 69.2 mM)
- solubility ([3]; solution pH 3.2, 25°C): 8300 µg/mL (≈ 15.7 mM)
- solubility ([3]; solution pH 4.0, 25°C): 1700 µg/mL (≈ 3.22 mM)
- solubility ([3]; solution pH 6.5, 25°C): 800 µg/mL (≈ 1.52 mM)
- cytotoxicity [4]: about 7 m M
- CC50 ([4]; HepG2.2.15, MTT): 7.9 ± 3 µM
- EC50 ([7]; HepG2.2.15, 8 days, HBV DNA in culture medium, read-out: EC50): 1.1 ± 0.1 µM
- residual content ([2]; Week 1): 99.0%
- residual content ([2]; Week 4): 91.3%
- residual content ([2]; Week 8): 8.4%

Compound: CC(C)(C)C(=O)OCOP(=O)(COC1(Cn2cnc3cnc(N)nc32)CC1)OCOC(=O)C(C)(C)C.Cc1ccc(S(=O)(=O)O)cc1 [Comparative Example 3, 3-[({1-[(2-amino-9H-purin-9-yl)methyl]cyclopropyl}oxy)methyl]-8,8-dimethyl-3,7-dioxo-2,4,6-trioxa-3λ5-phosphanon-1-yl-pivalate p-toluenesulfonic acid monosalt]
- residual content ([2]; Week 1): 96.5%
- residual content ([2]; Week 4): 71.0%

Compound: CC(C)(C)C(=O)OCOP(=O)(COC1(Cn2cnc3cnc(N)nc32)CC1)OCOC(=O)C(C)(C)C.CCS(=O)(=O)O [Comparative Example 7, 3-[({1-[(2-amino-9H-purin-9-yl)methyl]cyclopropyl}oxy)methyl]-8,8-dimethyl-3,7-dioxo-2,4,6-trioxa-3λ5-phosphanon-1-yl-pivalate ethanesulfonic acid monosalt]
- residual content ([1]; Week 1): 0.4%

Compound: CC(C)(C)C(=O)OCOP(=O)(COC1(Cn2cnc3cnc(N)nc32)CC1)OCOC(=O)C(C)(C)C.O=C(O)/C=C\C(=O)O.O=C(O)/C=C\C(=O)O.O=C(O)/C=C\C(=O)O [Comparative Example 2, 3-[({1-[(2-amino-9H-purin-9-yl)methyl]cyclopropyl}oxy)methyl]-8,8-dimethyl-3,7-dioxo-2,4,6-trioxa-3λ5-phosphanon-1-yl-pivalate maleic acid trisalt]
- residual content ([2]; Week 1): 84.4%
- residual content ([2]; Week 4): 0.0%
- residual content ([2]; Week 8): 0.0%

Compound: CC(C)(C)C(=O)OCOP(=O)(COC1(Cn2cnc3cnc(N)nc32)CC1)OCOC(=O)C(C)(C)C.Cc1ccc(S(=O)(=O)O)cc1.Cc1ccc(S(=O)(=O)O)cc1 [Comparative Example 4, 3-[({1-[(2-amino-9H-purin-9-yl)methyl]cyclopropyl}oxy)methyl]-8,8-dimethyl-3,7-dioxo-2,4,6-trioxa-3λ5-phosphanon-1-yl-pivalate p-toluenesulfonic acid disalt]
- residual content ([2]; Week 1): 0.0%
- residual content ([2]; Week 4): 0.0%
- residual content ([2]; Week 8): 0.0%
